Results from paper PMC3914206.

Legend:
Assay type in all cases: binding
Conditions in all cases: Compound Concentration 10 µM
[1] = target: T1, panel of 442 kinases (Homo sapiens, UniProt P51957)
T1 construct: purchased KINOMEscan
Description: (§1) We assessed the selectivity of members of this scaffold using the KINOMEscan methodology across a near comprehensive panel of 442 kinases [[18,27]].

[2] = target: T2, panel of 442 kinases (Homo sapiens, UniProt Q12851)
T2 construct: purchased KINOMEscan
T2 sequence (Q12851 1-820): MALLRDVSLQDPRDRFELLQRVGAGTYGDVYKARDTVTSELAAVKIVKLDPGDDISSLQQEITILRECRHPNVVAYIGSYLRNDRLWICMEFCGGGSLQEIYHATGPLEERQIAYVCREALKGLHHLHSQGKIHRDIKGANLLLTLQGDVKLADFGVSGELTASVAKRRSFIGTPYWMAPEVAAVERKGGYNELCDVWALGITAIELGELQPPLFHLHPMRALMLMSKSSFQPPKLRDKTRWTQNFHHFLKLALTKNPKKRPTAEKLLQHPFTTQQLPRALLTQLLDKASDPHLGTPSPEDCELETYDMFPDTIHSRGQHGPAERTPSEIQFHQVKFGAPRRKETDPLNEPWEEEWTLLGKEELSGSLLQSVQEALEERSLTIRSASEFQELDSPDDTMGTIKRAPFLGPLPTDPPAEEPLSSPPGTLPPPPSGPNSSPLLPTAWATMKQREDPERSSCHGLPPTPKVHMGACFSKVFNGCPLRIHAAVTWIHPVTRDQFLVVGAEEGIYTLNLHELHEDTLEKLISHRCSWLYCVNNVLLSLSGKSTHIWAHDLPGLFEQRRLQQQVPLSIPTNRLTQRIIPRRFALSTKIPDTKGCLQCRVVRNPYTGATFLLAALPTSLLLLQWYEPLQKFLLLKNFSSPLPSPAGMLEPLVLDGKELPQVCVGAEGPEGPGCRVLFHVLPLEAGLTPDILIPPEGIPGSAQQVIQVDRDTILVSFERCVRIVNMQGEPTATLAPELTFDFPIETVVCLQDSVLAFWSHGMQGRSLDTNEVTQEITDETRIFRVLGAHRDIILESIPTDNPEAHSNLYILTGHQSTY
Description: as §1

[3] = target: T3, panel of 442 kinases (Homo sapiens, UniProt Q9BVS4)
T3 construct: purchased KINOMEscan
Description: as §1

T3 sequence (Q9BVS4 whole entry): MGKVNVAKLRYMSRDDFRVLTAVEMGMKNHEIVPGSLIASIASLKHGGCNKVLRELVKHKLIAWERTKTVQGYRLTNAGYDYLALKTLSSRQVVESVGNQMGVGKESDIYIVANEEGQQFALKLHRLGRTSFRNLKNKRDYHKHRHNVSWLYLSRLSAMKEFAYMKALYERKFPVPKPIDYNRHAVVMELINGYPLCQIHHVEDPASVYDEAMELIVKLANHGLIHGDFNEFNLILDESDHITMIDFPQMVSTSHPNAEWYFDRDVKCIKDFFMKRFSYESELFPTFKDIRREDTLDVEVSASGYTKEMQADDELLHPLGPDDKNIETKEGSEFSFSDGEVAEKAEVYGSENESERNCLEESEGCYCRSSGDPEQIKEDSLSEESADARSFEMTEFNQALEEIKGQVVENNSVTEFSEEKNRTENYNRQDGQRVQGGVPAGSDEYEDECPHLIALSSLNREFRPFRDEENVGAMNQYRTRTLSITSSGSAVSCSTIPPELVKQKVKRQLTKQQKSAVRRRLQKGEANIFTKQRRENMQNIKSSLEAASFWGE
T1 sequence (P51957 whole entry): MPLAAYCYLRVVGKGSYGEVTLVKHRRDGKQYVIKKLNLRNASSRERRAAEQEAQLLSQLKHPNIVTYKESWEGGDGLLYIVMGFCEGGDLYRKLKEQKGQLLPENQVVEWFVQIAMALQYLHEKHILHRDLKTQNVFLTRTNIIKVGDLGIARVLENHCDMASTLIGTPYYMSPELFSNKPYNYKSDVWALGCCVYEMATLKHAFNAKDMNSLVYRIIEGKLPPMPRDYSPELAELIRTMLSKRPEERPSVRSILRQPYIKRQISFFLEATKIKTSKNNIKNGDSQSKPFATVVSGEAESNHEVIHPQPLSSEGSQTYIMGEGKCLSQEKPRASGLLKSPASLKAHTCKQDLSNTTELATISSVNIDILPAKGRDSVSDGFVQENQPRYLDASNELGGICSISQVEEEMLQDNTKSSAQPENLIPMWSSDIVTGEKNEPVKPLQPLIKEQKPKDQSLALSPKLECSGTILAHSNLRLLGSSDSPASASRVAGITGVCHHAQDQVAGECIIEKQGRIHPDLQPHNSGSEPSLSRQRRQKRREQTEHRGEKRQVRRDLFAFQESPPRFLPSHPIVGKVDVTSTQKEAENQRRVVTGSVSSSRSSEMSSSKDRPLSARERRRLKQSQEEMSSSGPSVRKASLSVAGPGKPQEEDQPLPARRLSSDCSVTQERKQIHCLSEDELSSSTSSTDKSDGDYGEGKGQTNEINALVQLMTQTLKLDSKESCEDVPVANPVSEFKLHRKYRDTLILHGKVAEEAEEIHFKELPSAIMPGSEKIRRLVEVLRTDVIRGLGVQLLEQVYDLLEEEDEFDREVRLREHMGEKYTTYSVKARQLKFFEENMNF

SMILES	KINOMEscan: NEK4 [1]	KINOMEscan: MAP4K2 [2]	KINOMEscan: RIOK2 [3]
CCOc1cc(C(=O)N2CCC(N3CCN(C)CC3)CC2)ccc1Nc1ncc2c(n1)N(C1CCCC1)c1ccccc1C(=O)N2C [Compound 26]	89	92	81
COc1cc(C(=O)N2CCC(N3CCN(C)CC3)CC2)ccc1Nc1ncc2c(n1)N(C1CCCC1)c1ccccc1C(=O)N2C [Compound 25, 11-cyclopentyl-2-((2-methoxy-4-(4-(4-methylpiperazin-1-yl)piperidine-1-carbonyl)phenyl)amino)-5-methyl-5H-benzo[e]pyrimido[5,4-b][1,4]diazepin-6(11H)-one]	97	100	93
COc1cc(C(=O)N2CCC(N3CCN(C)CC3)CC2)ccc1Nc1ncc2c(n1)N1CCc3cccc(c31)C(=O)N2C [Compound 24]	–	–	81
COc1cc(C(=O)N2CCC(N3CCN(C)CC3)CC2)ccc1Nc1ncc2c(n1)N(C)c1ccccc1C(=O)N2C [15 (LRRK2-IN-1)]	95	100	100
